Test results taken from patent US20030134859A1 (SANKYO COMPANY, LIMITED, priority 2000, published 2003).

Tests used:
Rat white adipocytes = assay: Inhibition of the differentiation of adipocytes (Oil Red O); type: cell-based; conditions: Rattus norvegicus, Adipocyte, 120 h, 100 nM test compound; 5 days; Oil Red O ABS550; control = 100%, blank = 0%; Table 3; read-out: Rate of Differentiation (%)
Protocol: Rat white adipocytes contained in the white adipocyte culture kit purchased from HOKUDO were used. As the medium for proliferation and for differentiation-inducing, the medium contained in the white adipocyte culture kit purchased from HOKUDO was used. The cells in the present experiment were cultured in a CO2 incubator (37° C., 95% R.H., 5% CO2).
Immediately after arrival of the purchased cells, all medium for transportation was discarded and replaced with 5 ml of proliferation medium (/25 cm^2-flask) and the cells were cultured for one day. Then, a cell suspension was prepared with proliferation medium so as to be 83,000 cells/mL, and the cell suspension was plated into a type I 96-well collagen-coated microplate (SUMITOMO BAKELITE CO., ltd.) so as to be 5,000 cells/well (60 μL/well).
On the next day, all the proliferation medium was discarded and replaced with 147 μL/well of differentiation-inducing medium. Further, 1) in the group treated with the test compound, 3 μL/well of the solution, in which a test compound (100 μM) was dissolved in DMSO solution and diluted with differentiation-inducing medium by 20 times (final concentration of the test compound: 100 nM, final concentration of DMSO solution: 0.1% (v/v)), were added to the well where the cells were plated. 2) In the control group, 3 μL/well of DMSO solution that was diluted with differentiation-inducing medium by 20 times (final concentration of DMSO: 0.1% (v/v)) were added to the well where the cells were plated. Further, 3) in the blank group, 3 μL/well of DMSO solution that was diluted with differentiation-inducing medium by 20 times (final concentration: 0.1% (v/v)), was added to the blank well.
After culturing for 5 days, all differentiation-inducing medium was discarded and replaced with 60 μL of 10% (v/v) formaldehyde solution (for fixation) in each well and the cells were kept stationary for 20 min at room temperature. After this, the fixative solution was discarded and replaced with 60 μL of 0.2% (v/v) Triton X (Sigma-Aldrich Japan K. K.) solution in each well and kept stationary for 5 min at room temperature. Then all Triton X solution was discarded and replaced with 60 μL of 60% (v/v) isopropanol solution containing dissolved Oil Red O (Sigma-Aldrich Japan K. K.) so as to be 0.3%, which was adipose tissue staining solution, and the well was left stationary for 10 min at room temperature. After the adipose tissue staining solution was discarded, the well was washed twice with 60 JIL of 60% isopropanol solution. Then, 100 μL of the DMSO solution were added to each well and stirred for 5 min at room temperature, The absorbance was measured at 550 nm (ABS550) with a multi-plate reader (LabSystems), and the stained amount with Oil Red O was determined. The measured level at ABS550 in the control group was defined as 100%, while the level at ABS550 in the blank group was defined as 0%. The differentiation rate (%) of the adipocytes treated with the test compound was calculated.

leptin production = assay: Enhancing activity for leptin production in adipocytes (ELISA); type: cell-based, rat; conditions: Rattus norvegicus, Adipocyte, 24 h, leptin concentration as % of control group, read-out: Facilitating activity to produce leptin; for activity at 0.1 µM: 100 nm; for activity at 0.01 µM: 10 nm
Protocol: Hanks solution was used for collection of adipose tissue. The Hanks solution was prepared by filtration of a mixed solution (pH: 7.5) of 120 mM NaCl, 4.8 mM KCl, 0.74 mM MgSO4, 0.30 mM Na2HPO4, 0.40 mM KH2PO4, 20 mM HEPES, 0.05% (w/v) glucose, 2% (w/v) BSA (Sigma-Aldrich Japan K. K., Cat. No. A7888), 0.95 mM CaCl2, 4.17 mM NaHCO3 and 1% (v/v) penicillin-streptomycin liquid (GIBCO BRL, Cat. No. 15140-122). The adipocytes were cultured in Dulbecco's modified Eagle's medium (GIBCO BRL, Cat. No. 11995-040) mixed with DMEM/F-12 (GIBCO BRL, Cat. No. 11320-033) at a ratio of 1:1, and added 0.2% (v/v) Hanks solution, 0.2 μg/L sodium selenite (GIBCO BRL, Cat. No. 13012-018), 0.002% (v/v) ethanolamine, 25 mM HEPES and 1% (v/v) penicillin-streptomycin liquid (GIBCO BRL, Cat. No. 15140-122). As many as possible of the other reagents used were special grade. In this experiment, the cells were cultured in a CO2 incubator (37° C., 95% humidity, 5% CO2).
Male Wistar Imamichi rats of 6 weeks old were sacrificed by bleeding following decapitation, and adipose tissue was removed from the epididymis and sectioned after the vessels were removed in warmed Hanks solution at 37° C. and were weighed. One (1) mL of Hanks solution containing 10 mg collagenase (Wako Pure Chemical Industries, Ltd., 034-10533) was added to the adipose tissue prepared. The solution was transferred into a tube having a volume of 50 mL, and the cells were evenly dispersed by incubation under gentle shaking at 37° C., 90 rpm, for 50 min. Then 20 mL of Hanks solution were added and filtrated through Nylon-mesh with a mesh diameter of 200 μm for removal of undigested tissue pieces. The floating adipocytes were separated from sediments and substances located in the lower layer by centrifugation at 1,000 rpm for 1 min at room temperature. The sediment and 22 mL of the low layer were pulled out with a probe, and the floating adipocytes were recovered. This procedure was repeated twice with Hanks solution and for 4 times with the culture medium. After these procedures the adipocytes were suspended in the culture medium at a volume of 60 mL per 1 g of the adipose tissue weighed previously. 100 μL of the suspended solution were plated in each well of a 96-well microplate (ASAHI TECHNO GLASS Corp.) In the group treated with the test compound, 1 μL/well of DMSO solution containing the dissolved the test compound at concentrations of 200 μM, 20 μM, 2 μM and 0.2 μM (final concentrations of the test compound: 1 μM, 100 nM, 10 nM and 1 nM, respectively) was plated in each of the well. In the control group, 1 μL/well of DMSO (final concentration: 0.1% (v/v)) was plated in each well. The plate was placed stationary in a CO2 incubator for 1 hr or longer, and the contents in the solution were equilibrated at 37° C. After they were equilibrated, the solution in each well was stirred with a magnetic stirrer in a water bath and the suspended solution maintained at 37° C. was plated into each well of the plate at 100 μL/well. After incubation of the cells for 24 hr, the suspended solution of cells was filtrated through a filter for the microplate, MultiScreen (MILLOPORE, MDV-N65). The concentration of leptin in the filtrated solution was determined with ELISA methods by using a Rat Leptin Determination Kit-IBL (Immuno-Biological Laboratories Co., Ltd., Cat. No. 17195). The facilitating activity of the compound to produce leptin was calculated from the following equation based on the concentration of leptin determined.
Facilitating Activity of the Compound to Produce Leptin (%)=(A/B)×100
A: Concentration of Leptin in the Treated Group with the Test Compound.
B: Concentration of Leptin in the Control Group.

Row | Compound | activity at 0.1 µM (Rat white adipocytes) [%] | activity at 1 µM (leptin production) [%] | activity at 0.1 µM (leptin production) [%] | activity at 0.01 µM (leptin production) [%]
1 | CCCCCCN(CCCCC)c1ccc(-c2ccc(NC(=O)c3cc([N+](=O)[O-])ccc3Cl)cc2)cc1 [Example 200, N-[4-[4-(N-Hexyl-N-pentylamino)phenyl]phenyl]-(2-chloro-5-nitrophenyl)carboxamide] | 44.1 | 117 |  | 
2 | CCCCCCN(CCCCCC)c1ccc(-c2ccc(NC(=O)c3cc([N+](=O)[O-])ccc3Cl)cc2)cc1 [Example 201, N-[4-[4-(N,N-Dihexylamino)phenyl]phenyl]-(2-chloro-5-nitrophenyl)carboxamide] | 46.9 | 112 | 114 | 
3 | CCCCCNc1ccc(-c2ccc(NC(=O)c3cc([N+](=O)[O-])ccc3Cl)cc2)cc1 [Example 202, N-[4-[4-(N-Pentylamino)phenyl]phenyl]-(2-chloro-5-nitrophenyl)carboxamide] | 35.4 | 137 | 133 | 136
4 | CCCCCCCCN(C)c1ccc(-c2ccc(NC(=O)c3cc([N+](=O)[O-])ccc3Cl)cc2)cc1 [Example 226, N-[4-[4-(N-Methyl-N-octylamino)phenyl]phenyl]-(2-chloro-5-nitrophenyl)carboxamide] | 42 |  |  | 111
5 | CNC(=S)Nc1ccc(-c2ccc(NC(=O)c3cc([N+](=O)[O-])ccc3Cl)cc2)cc1 [Example 236, N-[4-[4-(Methylaminothiocarbonylamino)phenyl]phenyl]-(2-chloro-5-nitrophenyl)carboxamide] | 47.1 |  |  | 112
6 | O=C(Nc1ccccc1)Nc1ccc(-c2ccc(NC(=O)c3cc([N+](=O)[O-])ccc3Cl)cc2)cc1 [Example 242, N-[4-[4-(Phenylaminocarbonylamino)phenyl]phenyl]-(2-chloro-5-nitrophenyl)carboxamide] | 57.6 |  | 111 | 
7 | O=C(Nc1ccc(-c2ccc(NC(=O)c3cc([N+](=O)[O-])ccc3Cl)cc2)cc1)Nc1ccc(F)cc1F [Example 249, N-[4-[4-[(2,4-Difluorophenyl)aminocarbonylamino]phenyl]phenyl]-(2-chloro-5-nitrophenyl)carboxamide] | 61.9 | 111 | 113 | 114
8 | NC(=O)NCCc1ccc(NC(=O)c2cc([N+](=O)[O-])ccc2Cl)cc1 [Example 270, N-[4-(2-Aminocarbonylaminoethyl)phenyl]-(2-chloro-5-nitrophenyl)carboxamide] | 45.9 |  |  | 118
